Test results: article PMC5844530, “Fosmetpantotenate (RE-024), a phosphopantothenate replacement therapy for pantothenate kinase-associated neurodegeneration: Mechanism of action and efficacy in nonclinical models” (PLoS ONE, 2018)
Several values for one entry are separate records, joined by “and”; a condition that tells them apart may be missing. Identical values can stand only once. Entries after “also recorded” stand apart in the source; their conditions may differ.

Assays:
[1] = system: shRNA PanK2 knockdown human neuroblastoma IMR32 cells; assay: Intracellular CoA levels in shRNA PanK2 knockdown human neuroblastoma cells; assay type: cell-based; settings: for Area Ratio, biological replicates 1-3 / Area Ratio, Mean / CoASH Fold Increase, Mean: Figure 3 data; for Area Ratio, biological replicates 1-3: PANK2-/- cells; for CoASH Fold Increase, Mean: over vehicle (1.00); for CoASH Area ratio / Total CoA Area ratio: Figure 4 data, 1 µM fosmetpantotenate, each line a biological replicate (well), analyzed 3 times
Method: The in vitro model to evaluate the efficacy of fosmetpantotenate and analogs was developed using a human neuroblastoma IMR32 cell line (ATCC) with stable PanK2 knockdown through lentiviral-delivered shRNA [23]. […] Cells were cultured in minimal essential media (MEM; Invitrogen), supplemented with 10% fetal bovine serum, 2 mM glutamine, 1% penicillin-streptomycin, 1 mM sodium pyruvate, 1 mM non-essential amino acids, 1.5 g/L sodium bicarbonate, and 1 μg/mL puromycin. […] At the end of the time period, cells were harvested, counted, collected in a 15 mL falcon tube, and centrifuged at 200xg for 5 min at 4°C.
For all incubations, the supernatant was removed and the cell pellet was resuspended in 10 mL of ice-cold phosphate buffered saline. […] The supernatant (100 μL) was placed in a separate tube and dried under nitrogen at 20°C in the dark. Samples were reconstituted with ammonium acetate buffer (pH 5.1) containing dextrorphan (50 ng/mL) as the internal standard, stirred for 2 min, sonicated in an ultrasonic bath for 1 min, and stirred again for 1 min before liquid chromatography-tandem mass spectrometry (LC-MS/MS) analysis for determination of intracellular CoA levels. Intracellular CoA concentration was calculated considering an intracellular volume of 10^6 cells equal to 2 μL. The measurement of the intracellular volume of cultured cells was performed following the distribution of [^14C]urea and [^14C]mannitol with time.
Coenzyme A determinations: An Agilent 1100 high-performance liquid chromatography (HPLC) system with a CTC PAL autosampler was used. Samples were chromatographed on a Phenomenex Luna C18 column (50 x 2.0 mm; 5 μm), with a 0.2 mL/min flow rate and a […] injection volume in a 5 μL injection loop. The mobile phases were (A) 10 mM ammonium acetate in water and (B) acetonitrile:2-propanol (9:1; v:v). […] A Sciex API 4000 QTrap mass spectrometer, connected to the HPLC system in tandem, with an electrospray ionization source operating in the positive scanning mode, was used for multiple reaction monitoring (MRM). […] The statistical significance of the treatment was determined using a t-test.

[2] = Metabolic stability in rat whole blood; assay type: in vitro ADME; settings: for Percentage Remaining: rat whole blood, replicates 1 and 2, listed as Fosmetpantotenate Total
Method: (§1) Metabolic stability in blood and liver microsomes: Fosmetpantotenate or its individual diastereomers (5 μM, n = 2, 37°C) were incubated in mouse, rat, cynomolgus monkey, and human whole blood. Samples (50 μL) were taken at 0, 5, 15, 30, and 60 min. Incubations of fosmetpantotenate or its individual diastereomers (1 μM, n = 2, 37°C) in pooled liver microsomes (0.25 mg protein/mL in 0.1 M phosphate buffer pH 7.4) were initiated with the addition of nicotinamide adenine dinucleotide phosphate (NADPH; 1 mM). Aliquots (100 μL) were obtained at 0, 5, 10, 20, and 40 min and added to 150 μL of 0.1% formic acid in acetonitrile-containing carbamazepine (0.5 μM) as an analytical internal standard, centrifuged, and the supernatants analyzed by LC-MS/MS.
Bioanalysis for determinations of analyte stability: Samples were analyzed using a benchtop tandem quadrupole detector (TQD) mass spectrometer (Waters Ltd, Centennial Park, Hertfordshire). […] Suitable retention and peak shape with separation of the 2 diastereomers were obtained. The chromatography column was a Phenomenex-Kinetex XB C18 (2.10 x 50 mm; 2.6 μm), with a 0.7 mL/min flow rate and a 2 μL injection volume. […] The gradient was initiated with 20% B and increased linearly, reaching 40% B at 0.6 min, followed by 50% B at 0.8 min and by 95% B at 0.9 min. Conditions were kept isocratic through 1.2 min, returned to starting conditions (20% B) at 1.25 min, and maintained at 20% B through 1.5 min before the next injection. Since fosmetpantotenate is a mixture of diastereomers which are resolved chromatographically, the fosmetpantotenate MRM area corresponds to the sum of the MRM areas of the individual diastereomers.
The percent of compound remaining was determined from the MRM area response in each sample relative to that in the T = 0 samples (normalized for internal standard). Natural log plots of the percent compound remaining over time were used to determine the t½ of compound disappearance using the relationship t½ = -0.693/λ, where λ is the slope of the natural logarithm of the percent compound remaining vs time curve.

[3] = Metabolic stability in mouse liver microsomes; assay type: in vitro ADME; settings: pooled liver microsomes
Method: as §1
Bioanalysis for determinations of analyte stability: Samples were analyzed using a benchtop tandem quadrupole detector (TQD) mass spectrometer (Waters Ltd, Centennial Park, Hertfordshire). […] Suitable retention and peak shape with separation of the 2 diastereomers were obtained. The chromatography column was a Phenomenex-Kinetex XB C18 (2.10 x 50 mm; 2.6 μm), with a 0.7 mL/min flow rate and a 2 μL injection volume. […]
The percent of compound remaining was determined from the MRM area response in each sample relative to that in the T = 0 samples (normalized for internal standard). […]

[4] = Microdialysis (brain striatal dialysate) in C57Bl6 mice; settings: for Fosmetpantotenate Total Concentration in Mouse Striatal Dialysate (Corrected for Dilution): individual mice, non-fasted male C57/Bl6; for Fosmetpantotenate Total Concentration in Mouse Striatal Dialysate (Corrected for Dilution), Mean: mean of 8 mice
Method: Mice were anesthetized using isoflurane (2%, 800 mL/min O2).
For oral dosing experiments, MetaQuant microdialysis probes (regenerated cellulose membrane, BrainLink, the Netherlands) were inserted into the striatum (3 mm exposed surface). Coordinates for the tips of the probes for mice were anterior-posterior (AP) = +0.8 mm from bregma, lateral (L) = -1.7 mm from midline, and ventral (V) = -4.0 mm from dura, the toothbar set at 0 mm.
Microdialysis animal dosing and sample collection: Adult non-fasted male C57Bl6 mice (20–29 g; Harlan Laboratories, Livermore, CA), and Macaca fascicularis (4–9 kg, 3–6 yr old) were used for the experiments. For oral dosing, fosmetpantotenate was formulated as a solution in 20% hydroxypropyl-beta-cyclodextrin in 50 mM citrate buffer in water pH 5.0 and administered using a dose volume of 10 mL/kg. Mice (N = 6 serially sampled) received fosmetpantotenate as a single oral dose at 700 mg/kg and monkeys received a single oral dose at either 100 mg/kg (N = 4 serially sampled) or 300 mg/kg (N = 2 serially sampled).
Microdialysis: On the morning of the microdialysis experiment, a MetaQuant probe was inserted into the guide shaft targeting the head of the caudate nucleus and perfused at a rate of 0.15 μL/min aCSF containing 0.2% (w/v) BSA, with a carrier flow of 0.8 μL/min of ultrapure water.
A single 30 min pre-dose basal dialysate sample was collected from mice over -0.5 to 0 h, and three 30 min basal samples from monkeys over -1.5 to 0 h. Fosmetpantotenate was administered at t = 0, and 30 min dialysate samples were collected for an additional 4 h for mice and 3 h for monkeys.
Sample preparation for mouse dialysate samples: Concentrations of fosmetpantotenate, PA, and PPA in mouse dialysate were determined by Nextcea, Inc, Woburn, MA, using LC-MS/MS. Standard curves and QC samples containing fosmetpantotenate (D1 and D2) and the surrogate analytes for PA and PPA (^15N/^13C3-PA and ^15N/^13C3-PPA) were prepared fresh in 0.1% formic acid in water. Frozen study mouse dialysate samples were thawed in ice/water bath. Standards, QC samples, and thawed study dialysate samples (20 μL) were mixed with 20 μL 0.1% formic acid in water containing internal standard (50 ng/mL of ^15N/^13C3-fosmetpantotenate) and analyzed by LC-MS/MS.
LC-MS/MS analysis for mouse dialysate samples: Concentrations of fosmetpantotenate, PA, and PPA in dialysate from mice were determined by using LC-MS/MS conditions described for blood PK analysis by Nextcea, except dialysate samples were analyzed using an ACIEX API 5000 and flow rate was increased to 0.6 mL/min.
Quantitation of in vivo samples: Peak areas were integrated using Analyst software (AB Sciex, Concord, Ontario, Canada). Calibration curves for all blood samples from mouse and rat PK studies and mouse dialysate samples were prepared by plotting the analyte to internal standard (^15N/^13C3-fosmetpantotenate) peak area ratio vs concentration.

[5] = system: porcine brain endothelial cell (PBEC) co-culture model; assay: In vitro blood-brain barrier permeability (PBEC/rat astrocyte co-culture); settings: in words
Method: Permeability studies were performed after 2 days of co-culture with rat astrocytes. […] In each filter used for transport, a paracellular marker was included as an internal control to monitor the integrity of the cell monolayer. The day of the experiment, culture medium was removed and cells on Transwell inserts were pre-incubated for 30 min with Hank's Balanced Salt Solution (HBSS) containing 20 mM Hepes pH 7.4 and 0.1% bovine serum albumin (BSA). […] Aliquots from the basal compartment were taken after 1 h; fluorescence was measured using a fluorescence detector. The permeability coefficient of the total system was calculated as follows: P[cm/s]=Vd×ΔMr/A×Md×Δt Where:
To correct for the contribution of the porous polycarbonate membrane of the filter in the absence of cells, the permeability was also determined for the cell-free system. Contribution of the endothelial cell monolayer to the permeability of the cell and filter system was determined by the following equation: 1/Pe=1/Pt-1/Pf Where the total permeability of the system is denoted as Pt, the cell-free filter as Pf, and the endothelial cell layer alone as Pe. The total resistance of the system towards passage of a substance is composed of 2 resistances in series: that of the cell monolayer and that of the filter; permeability is estimated as 1/resistance [27]. […] Mass balance was determined based on the amount of compound recovered in the donor and receiver chamber at the end of the assay relative to the amount added to the donor chamber at time 0.

[6] = single oral 700 mg/kg fosmetpantotenate, collection time 0 hr, BQL=8.08 nM
[7] = single oral 700 mg/kg fosmetpantotenate, collection time 0.5 hr, BQL=8.08 nM
[8] = single oral 700 mg/kg fosmetpantotenate, collection time 1 hr, BQL=8.08 nM
[9] = single oral 700 mg/kg fosmetpantotenate, collection time 1.5 hr, BQL=8.08 nM
[10] = single oral 700 mg/kg fosmetpantotenate, collection time 2 hr, BQL=8.08 nM
[11] = single oral 700 mg/kg fosmetpantotenate, collection time 2.5 hr, BQL=8.08 nM
[12] = single oral 700 mg/kg fosmetpantotenate, collection time 3 hr, BQL=8.08 nM
[13] = single oral 700 mg/kg fosmetpantotenate, collection time 3.5 hr, BQL=8.08 nM
[14] = single oral 700 mg/kg fosmetpantotenate, collection time 4 hr, BQL=8.08 nM
[15] = male, C57Bl6, mouse, striatal dialysate (brain microdialysate), other: direct infusion into the striatum via cannula, 125 µg per animal

COC(=O)CCNC(=O)[C@H](O)C(C)(C)COP(=O)(N[C@@H](C)C(=O)OC)Oc1ccccc1 (mixture of isomers) [Fosmetpantotenate]
change in the level of free CoA ([1]; 1 μM TID for 5 days): little change; also recorded: little effect
Area Ratio, biological replicates 1-3 ([1]; compound conc 12.5 µM): 0.109 and 0.098 and 0.112
Area Ratio, biological replicates 1-3 ([1]; compound conc 25 µM): 0.141 and 0.129 and 0.135
Area Ratio, biological replicates 1-3 ([1]; compound conc 50 µM): 0.159 and 0.189 and 0.167
Area Ratio, biological replicates 1-3 ([1]; compound conc 100 µM): 0.157 and 0.186 and 0.139
Area Ratio, biological replicates 1-3 ([1]; compound conc 200 µM): 0.243 and 0.294 and 0.241
Area Ratio, Mean ([1]; concentration 12.5 µM): 0.081
Area Ratio, Mean ([1]; concentration 25 µM): 0.111
Area Ratio, Mean ([1]; concentration 50 µM): 0.141
Area Ratio, Mean ([1]; concentration 100 µM): 0.127
Area Ratio, Mean ([1]; concentration 200 µM): 0.216
CoASH Fold Increase, Mean ([1]; concentration 25 µM): 1.25
CoASH Fold Increase, Mean ([1]; concentration 50 µM): 2.00
CoASH Fold Increase, Mean ([1]; concentration 100 µM): 2.27
CoASH Fold Increase, Mean ([1]; concentration 200 µM): 2.41
CoASH Area ratio ([1]; Day 1): 0.0013 (2×) and 0.0014 and 0.0011 and 0.0012 (2×) and 0.0018 and 0.0019 (2×)
Total CoA Area ratio ([1]; Day 1): 0.0238 and 0.0248 and 0.0256 and 0.0250 and 0.0258 and 0.0229 and 0.0233 and 0.0235
CoASH Area ratio ([1]; Day 3): 0.0035 and 0.0037 (2×) and 0.0024 and 0.0025 and 0.0026 and 0.0022 and 0.0023 (2×)
Total CoA Area ratio ([1]; Day 3): 0.0360 and 0.0361 and 0.0365 and 0.0359 and 0.0368 and 0.0185 and 0.0353 and 0.0367
CoASH Area ratio ([1]; Day 5): 0.0029 and 0.0031 (2×) and 0.0024 (2×) and 0.0025 and 0.0019 and 0.0020 (2×)
Total CoA Area ratio ([1]; Day 5): 0.0314 and 0.0330 (2×) and 0.0343 and 0.0336 and 0.0342
half-life at 5 μM ([2]; rat blood, 5 μM, 37°C, 60 min): < 5 min
Percentage Remaining ([2]; 5 min): 6% and 1%
Percentage Remaining ([2]; 15 min): 0% and 8%
Percentage Remaining ([2]; 60 min): 0%
half-life at 1 μM ([3]; pH 7.4, 1 μM, NADPH): 11 min
microsomal CLint at 1 μM ([3]; pH 7.4, read-out: intrinsic clearance): 247 µL/min/mg
Fosmetpantotenate Total Concentration in Mouse Striatal Dialysate (Corrected for Dilution) [4, 6]: BQL
Fosmetpantotenate Total Concentration in Mouse Striatal Dialysate (Corrected for Dilution) [4, 7]: BQL
Fosmetpantotenate Total Concentration in Mouse Striatal Dialysate (Corrected for Dilution) [4, 8]: BQL
Fosmetpantotenate Total Concentration in Mouse Striatal Dialysate (Corrected for Dilution) [4, 9]: BQL
Fosmetpantotenate Total Concentration in Mouse Striatal Dialysate (Corrected for Dilution) [4, 10]: BQL
Fosmetpantotenate Total Concentration in Mouse Striatal Dialysate (Corrected for Dilution) [4, 11]: BQL
Fosmetpantotenate Total Concentration in Mouse Striatal Dialysate (Corrected for Dilution) [4, 12]: BQL
Fosmetpantotenate Total Concentration in Mouse Striatal Dialysate (Corrected for Dilution) [4, 13]: BQL
Fosmetpantotenate Total Concentration in Mouse Striatal Dialysate (Corrected for Dilution) [4, 14]: BQL
Fosmetpantotenate Total Concentration in Mouse Striatal Dialysate (Corrected for Dilution) ([4]; single oral dose (so in the source) 125 µg fosmetpantotenate per animal, collection time 0 hr): 0.1306 µM and 0.109 µM and 0.0833 µM and 0.3107 µM and 0.3579 µM and 0.2168 µM and 0.4624 µM
Fosmetpantotenate Total Concentration in Mouse Striatal Dialysate (Corrected for Dilution) ([4]; single oral dose (so in the source) 125 µg fosmetpantotenate per animal, collection time 0.5 hr): 27.5961 µM and 228.5933 µM and 5852.2469 µM and 2389.398 µM and 1463.0617 µM and 6013.9111 µM and 2121.0353 µM
Fosmetpantotenate Total Concentration in Mouse Striatal Dialysate (Corrected for Dilution) ([4]; single oral dose (so in the source) 125 µg fosmetpantotenate per animal, collection time 1 hr): 3.7441 µM and 35.9218 µM and 1147.8164 µM and 370.2112 µM and 269.3327 µM and 936.0362 µM and 475.293 µM
Fosmetpantotenate Total Concentration in Mouse Striatal Dialysate (Corrected for Dilution) ([4]; single oral dose (so in the source) 125 µg fosmetpantotenate per animal, collection time 1.5 hr): 0.2457 µM and 3.8638 µM and 77.1139 µM and 16.3443 µM and 13.2241 µM and 54.6749 µM and 52.7026 µM
Fosmetpantotenate Total Concentration in Mouse Striatal Dialysate (Corrected for Dilution) ([4]; single oral dose (so in the source) 125 µg fosmetpantotenate per animal, collection time 2 hr): 0.2142 µM and 1.3919 µM and 11.6398 µM and 2.8307 µM and 6.9839 µM and 18.3812 µM and 13.5798 µM
Fosmetpantotenate Total Concentration in Mouse Striatal Dialysate (Corrected for Dilution) ([4]; single oral dose (so in the source) 125 µg fosmetpantotenate per animal, collection time 2.5 hr): 0.2094 µM and 0.4624 µM and 4.0416 µM and 0.9538 µM and 6.8061 µM and 14.469 µM and 7.8892 µM
Fosmetpantotenate Total Concentration in Mouse Striatal Dialysate (Corrected for Dilution) ([4]; single oral dose (so in the source) 125 µg fosmetpantotenate per animal, collection time 3 hr): 0.1664 µM and 0.2839 µM and 1.9869 µM and 1.0929 µM and 4.1402 µM and 11.268 µM and 3.6164 µM
Fosmetpantotenate Total Concentration in Mouse Striatal Dialysate (Corrected for Dilution) ([4]; single oral dose (so in the source) 125 µg fosmetpantotenate per animal, collection time 3.5 hr): 0.1305 µM and 0.2331 µM and 1.7056 µM and 0.6693 µM and 3.2575 µM and 11.9147 µM and 1.9173 µM
Fosmetpantotenate Total Concentration in Mouse Striatal Dialysate (Corrected for Dilution) ([4]; single oral dose (so in the source) 125 µg fosmetpantotenate per animal, collection time 4 hr): 0.1387 µM and 0.2171 µM and 1.4129 µM and 0.5497 µM and 2.2649 µM and 9.8939 µM and 1.5099 µM
concentration at 0 h [4, 15]: 0.239 µM
concentration at 0.5 h [4, 15]: 2590 µM
concentration at 1 h [4, 15]: 463 µM
concentration at 1.5 h [4, 15]: 31.2 µM
concentration at 2 h [4, 15]: 7.86 µM
concentration at 2.5 h [4, 15]: 4.98 µM
concentration at 3 h [4, 15]: 3.22 µM
concentration at 3.5 h [4, 15]: 2.83 µM
concentration at 4 h [4, 15]: 2.28 µM
Fosmetpantotenate Total Concentration in Mouse Striatal Dialysate (Corrected for Dilution), Mean [4, 6]: BQL
Fosmetpantotenate Total Concentration in Mouse Striatal Dialysate (Corrected for Dilution), Mean [4, 7]: BQL
Fosmetpantotenate Total Concentration in Mouse Striatal Dialysate (Corrected for Dilution), Mean [4, 8]: BQL
Fosmetpantotenate Total Concentration in Mouse Striatal Dialysate (Corrected for Dilution), Mean [4, 9]: BQL
Fosmetpantotenate Total Concentration in Mouse Striatal Dialysate (Corrected for Dilution), Mean [4, 10]: BQL
Fosmetpantotenate Total Concentration in Mouse Striatal Dialysate (Corrected for Dilution), Mean [4, 11]: BQL
Fosmetpantotenate Total Concentration in Mouse Striatal Dialysate (Corrected for Dilution), Mean [4, 12]: BQL
Fosmetpantotenate Total Concentration in Mouse Striatal Dialysate (Corrected for Dilution), Mean [4, 13]: BQL
Fosmetpantotenate Total Concentration in Mouse Striatal Dialysate (Corrected for Dilution), Mean [4, 14]: BQL
Cmax ([4]; striatal dialysate, fosmetpantotenate 700 mg/kg PO, analyte = label, not baseline-adjusted): <LLOQ
blood-brain barrier permeability classification [5]: permeable
